Test results as given in patent US6626122B2, “Deactivatable biocides in ballast water” (Chevron U.S.A. Inc, priority 2001, dated 2003).
In brackets after ≈: the same amount, converted by molar mass. Like-named read-outs stand apart in the source and are kept apart here.

How the values were obtained:
bacterial inoculum [1] = type: cell-based; conditions: for Growth, nitrogen compound control: control without glutaraldehyde; for Growth, nitrogen compound control / Growth, Neutralization of Biocides with Nitrogen Compounds: n-C16; for neutralizing 10 ppm of glutaraldehyde: two moles per glutaraldehyde; for Growth, Neutralization of Biocides with Nitrogen Compounds: with 10 ppm glutaraldehyde, two moles nitrogen compound per glutaraldehyde
Excerpt: The different nitrogen-containing compounds evaluated include the following: […]

bacteria = test: Neutralization of biocides - H2O2 and NH4Cl; type: cell-based; conditions: for microbial growth: after 14 days, 1, 10 or 100 ppm glutaraldehyde mixed with five times molar excess of the agent; for neutralizing biocides (glutaraldehyde): five times molar excess over 1, 10 or 100 ppm glutaraldehyde
Description: In this experiment, minimal medium containing 1, 10 or 100 ppm of glutaraldehyde was mixed with a five times molar excess of H2O2 or NH4Cl. Hydrocarbonaceous product and bacteria were then added to the mixture.

bacterial inoculum [2] = test: Evaluation of biocides: inhibition of growth on FT diesel and ALAD diesel; type: cell-based, alkane degrading organisms; further: key: −: No Growth; +: Growth (White Unless Otherwise Indicated)
Description: The ability of biocides to inhibit growth on a FT diesel and a low aromatics diesel fuel from Example 1 was investigated.
Test Conditions: 90 ml of growth media and 10 ml of either FT diesel or low sulfur (ALAD) diesel was added to 250 ml flasks. […] In addition to the 2 alkynes, glutaraldehyde (glutaric dialdehyde 50%), was tested. The following summarizes the test conditions:
100 ppm inhibitor (on a total test volume basis or 1000 ppm in diesel)
1% inhibitor (on a total test volume basis or 10% in diesel).
After inoculation, the flasks were place on a shaker-table (135 rpm) at room temperature and observed daily.

in vivo = conditions: Cyprinodon variegatus (sheepshead minnow, larval), 96 h, control experiment, separate compounds
Description: (§1) […]. EPA/600/4-90/027F Washington, D.C.) conducted at Pacific Eco-Risk Laboratories, Martinez, Calif.
(§2) LOEC is the Lowest Observable Effect Concentration and is defined as the minimum concentration where mortality is observed for the test species. […] LC-50, the concentration that will cause mortality of 50% of the organisms tested within 96 h, is a calculated value based on all observations.
(§3) The solutions were mixed for 48 hours prior to the start of the bioassays. The solutions were diluted to perform bioassays at starting glutaraldehyde concentrations of 100, 50, 37.5, 25, and 10.5 mg/L. The results are summarized in Table X.

[3] = tested on: Larval Sheepshead Minnow (Cyprinodon variegatus); test: in vivo; conditions: Cyprinodon variegatus (sheepshead minnow), 96 h
Description: as §1, §2, §3

[4] = FT Diesel + 1 Wt % biocide, Day 0
[5] = FT Diesel + 1 Wt % biocide, Day 1
[6] = FT Diesel + 1 Wt % biocide, Day 5
[7] = FT Diesel + 1 Wt % biocide, Day 7
[8] = FT Diesel + 1 Wt % biocide, Day 8
[9] = FT Diesel + 1 Wt % biocide, Day 19
[10] = FT Diesel + 100 ppm biocide, Day 0
[11] = FT Diesel + 100 ppm biocide, Day 1
[12] = FT Diesel + 100 ppm biocide, Day 5
[13] = FT Diesel + 100 ppm biocide, Day 7
[14] = FT Diesel + 100 ppm biocide, Day 8
[15] = FT Diesel + 100 ppm biocide, Day 19
[16] = LA Diesel + 1 Wt % biocide, Day 0
[17] = LA Diesel + 1 Wt % biocide, Day 1
[18] = LA Diesel + 1 Wt % biocide, Day 5
[19] = LA Diesel + 1 Wt % biocide, Day 7
[20] = LA Diesel + 1 Wt % biocide, Day 8
[21] = LA Diesel + 1 Wt % biocide, Day 19
[22] = LA Diesel + 100 ppm biocide, Day 0
[23] = LA Diesel + 100 ppm biocide, Day 1
[24] = LA Diesel + 100 ppm biocide, Day 5
[25] = LA Diesel + 100 ppm biocide, Day 7
[26] = LA Diesel + 100 ppm biocide, Day 8
[27] = LA Diesel + 100 ppm biocide, Day 19

OCCNCCO [DEA, Diethanolamine]
Growth, nitrogen compound control (bacterial inoculum [1]; Time 0 days): −
Growth, nitrogen compound control (bacterial inoculum [1]; Time 1 days): −
Growth, nitrogen compound control (bacterial inoculum [1]; Time 2 days): −
Growth, nitrogen compound control (bacterial inoculum [1]; Time 6 days): +
Growth, nitrogen compound control (bacterial inoculum [1]; Time 7 days): +
Growth, nitrogen compound control (bacterial inoculum [1]; Time 9 days): +
Growth, nitrogen compound control (bacterial inoculum [1]; Time 13 days): +
Growth, nitrogen compound control (bacterial inoculum [1]; Time 20 days): −
neutralizing 10 ppm of glutaraldehyde (bacterial inoculum [1]): effective
Growth, Neutralization of Biocides with Nitrogen Compounds (bacterial inoculum [1]; Time 0 days): −
Growth, Neutralization of Biocides with Nitrogen Compounds (bacterial inoculum [1]; Time 1 days): +
Growth, Neutralization of Biocides with Nitrogen Compounds (bacterial inoculum [1]; Time 2 days): +
Growth, Neutralization of Biocides with Nitrogen Compounds (bacterial inoculum [1]; Time 6 days): +
Growth, Neutralization of Biocides with Nitrogen Compounds (bacterial inoculum [1]; Time 7 days): +
Growth, Neutralization of Biocides with Nitrogen Compounds (bacterial inoculum [1]; Time 9 days): +
Growth, Neutralization of Biocides with Nitrogen Compounds (bacterial inoculum [1]; Time 13 days): +
Growth, Neutralization of Biocides with Nitrogen Compounds (bacterial inoculum [1]; Time 20 days): +

OO [H2O2]
microbial growth (bacteria): no growth
neutralizing biocides (glutaraldehyde) (bacteria): not effective

C#CCCCC [H, 1-hexyne]
Growth, Test Results on Fischer-Tropsch Diesel Fuel (bacterial inoculum [2]; [4]): −
Growth, Test Results on Fischer-Tropsch Diesel Fuel (bacterial inoculum [2]; [5]): −
Growth, Test Results on Fischer-Tropsch Diesel Fuel (bacterial inoculum [2]; [6]): −
Growth, Test Results on Fischer-Tropsch Diesel Fuel (bacterial inoculum [2]; [7]): −
Growth, Test Results on Fischer-Tropsch Diesel Fuel (bacterial inoculum [2]; [8]): −
Growth, Test Results on Fischer-Tropsch Diesel Fuel (bacterial inoculum [2]; [9]): −
Growth, Test Results on Fischer-Tropsch Diesel Fuel (bacterial inoculum [2]; [10]): −
Growth, Test Results on Fischer-Tropsch Diesel Fuel (bacterial inoculum [2]; [11]): −
Growth, Test Results on Fischer-Tropsch Diesel Fuel (bacterial inoculum [2]; [12]): +
Growth, Test Results on Fischer-Tropsch Diesel Fuel (bacterial inoculum [2]; [13]): +
Growth, Test Results on Fischer-Tropsch Diesel Fuel (bacterial inoculum [2]; [14]): +
Growth, Test Results on Fischer-Tropsch Diesel Fuel (bacterial inoculum [2]; [15]): +
Growth, Test Results on ALAD Diesel Fuel (bacterial inoculum [2]; [16]): −
Growth, Test Results on ALAD Diesel Fuel (bacterial inoculum [2]; [17]): −
Growth, Test Results on ALAD Diesel Fuel (bacterial inoculum [2]; [18]): −
Growth, Test Results on ALAD Diesel Fuel (bacterial inoculum [2]; [19]): −
Growth, Test Results on ALAD Diesel Fuel (bacterial inoculum [2]; [20]): −
Growth, Test Results on ALAD Diesel Fuel (bacterial inoculum [2]; [21]): −
Growth, Test Results on ALAD Diesel Fuel (bacterial inoculum [2]; [22]): −
Growth, Test Results on ALAD Diesel Fuel (bacterial inoculum [2]; [23]): −
Growth, Test Results on ALAD Diesel Fuel (bacterial inoculum [2]; [24]): +
Growth, Test Results on ALAD Diesel Fuel (bacterial inoculum [2]; [25]): +
Growth, Test Results on ALAD Diesel Fuel (bacterial inoculum [2]; [26]): +
Growth, Test Results on ALAD Diesel Fuel (bacterial inoculum [2]; [27]): +

NCCO [MEA, Monoethanolamine]
Growth, nitrogen compound control (bacterial inoculum [1]; Time 0 days): −
Growth, nitrogen compound control (bacterial inoculum [1]; Time 1 days): −
Growth, nitrogen compound control (bacterial inoculum [1]; Time 2 days): −
Growth, nitrogen compound control (bacterial inoculum [1]; Time 6 days): −
Growth, nitrogen compound control (bacterial inoculum [1]; Time 7 days): +
Growth, nitrogen compound control (bacterial inoculum [1]; Time 9 days): +
Growth, nitrogen compound control (bacterial inoculum [1]; Time 13 days): +
Growth, nitrogen compound control (bacterial inoculum [1]; Time 20 days): +
neutralizing 10 ppm of glutaraldehyde (bacterial inoculum [1]): effective
Growth, Neutralization of Biocides with Nitrogen Compounds (bacterial inoculum [1]; Time 0 days): −
Growth, Neutralization of Biocides with Nitrogen Compounds (bacterial inoculum [1]; Time 1 days): −
Growth, Neutralization of Biocides with Nitrogen Compounds (bacterial inoculum [1]; Time 2 days): −
Growth, Neutralization of Biocides with Nitrogen Compounds (bacterial inoculum [1]; Time 6 days): +
Growth, Neutralization of Biocides with Nitrogen Compounds (bacterial inoculum [1]; Time 7 days): +
Growth, Neutralization of Biocides with Nitrogen Compounds (bacterial inoculum [1]; Time 9 days): +
Growth, Neutralization of Biocides with Nitrogen Compounds (bacterial inoculum [1]; Time 13 days): +
Growth, Neutralization of Biocides with Nitrogen Compounds (bacterial inoculum [1]; Time 20 days): +
LC50 at 96 h (in vivo): 1500 µg/mL (≈ 24.6 mM)
LOEC [3]: 1700 mg/L
NOEC [3]: 1000 mg/L

Cl.N [NH4Cl]
microbial growth (bacteria): no growth
neutralizing biocides (glutaraldehyde) (bacteria): not effective

C#CCO [P, Propargyl alcohol]
Growth, Test Results on Fischer-Tropsch Diesel Fuel (bacterial inoculum [2]; [4]): −
Growth, Test Results on Fischer-Tropsch Diesel Fuel (bacterial inoculum [2]; [5]): −
Growth, Test Results on Fischer-Tropsch Diesel Fuel (bacterial inoculum [2]; [6]): −
Growth, Test Results on Fischer-Tropsch Diesel Fuel (bacterial inoculum [2]; [7]): −
Growth, Test Results on Fischer-Tropsch Diesel Fuel (bacterial inoculum [2]; [8]): −
Growth, Test Results on Fischer-Tropsch Diesel Fuel (bacterial inoculum [2]; [9]): −
Growth, Test Results on Fischer-Tropsch Diesel Fuel (bacterial inoculum [2]; [10]): −
Growth, Test Results on Fischer-Tropsch Diesel Fuel (bacterial inoculum [2]; [11]): −
Growth, Test Results on Fischer-Tropsch Diesel Fuel (bacterial inoculum [2]; [12]): −
Growth, Test Results on Fischer-Tropsch Diesel Fuel (bacterial inoculum [2]; [13]): +
Growth, Test Results on Fischer-Tropsch Diesel Fuel (bacterial inoculum [2]; [14]): +
Growth, Test Results on Fischer-Tropsch Diesel Fuel (bacterial inoculum [2]; [15]): +
Growth, Test Results on ALAD Diesel Fuel (bacterial inoculum [2]; [16]): −
Growth, Test Results on ALAD Diesel Fuel (bacterial inoculum [2]; [17]): −
Growth, Test Results on ALAD Diesel Fuel (bacterial inoculum [2]; [18]): −
Growth, Test Results on ALAD Diesel Fuel (bacterial inoculum [2]; [19]): −
Growth, Test Results on ALAD Diesel Fuel (bacterial inoculum [2]; [20]): −
Growth, Test Results on ALAD Diesel Fuel (bacterial inoculum [2]; [21]): −
Growth, Test Results on ALAD Diesel Fuel (bacterial inoculum [2]; [22]): −
Growth, Test Results on ALAD Diesel Fuel (bacterial inoculum [2]; [23]): −
Growth, Test Results on ALAD Diesel Fuel (bacterial inoculum [2]; [24]): + Yellow
Growth, Test Results on ALAD Diesel Fuel (bacterial inoculum [2]; [25]): + Yellow
Growth, Test Results on ALAD Diesel Fuel (bacterial inoculum [2]; [26]): + Yellow
Growth, Test Results on ALAD Diesel Fuel (bacterial inoculum [2]; [27]): + Yellow

Nc1ccccc1 [aniline, Aniline]
toxicity of the nitrogen-containing compound itself (microbial growth) (bacterial inoculum [1]): excessively toxic
Growth, nitrogen compound control (bacterial inoculum [1]; Time 0 days): −
Growth, nitrogen compound control (bacterial inoculum [1]; Time 1 days): −
Growth, nitrogen compound control (bacterial inoculum [1]; Time 2 days): −
Growth, nitrogen compound control (bacterial inoculum [1]; Time 6 days): −
Growth, nitrogen compound control (bacterial inoculum [1]; Time 7 days): −
Growth, nitrogen compound control (bacterial inoculum [1]; Time 9 days): −
Growth, nitrogen compound control (bacterial inoculum [1]; Time 13 days): −
Growth, nitrogen compound control (bacterial inoculum [1]; Time 20 days): −
Growth, Neutralization of Biocides with Nitrogen Compounds (bacterial inoculum [1]; Time 0 days): −
Growth, Neutralization of Biocides with Nitrogen Compounds (bacterial inoculum [1]; Time 1 days): −
Growth, Neutralization of Biocides with Nitrogen Compounds (bacterial inoculum [1]; Time 2 days): −
Growth, Neutralization of Biocides with Nitrogen Compounds (bacterial inoculum [1]; Time 6 days): −
Growth, Neutralization of Biocides with Nitrogen Compounds (bacterial inoculum [1]; Time 7 days): −
Growth, Neutralization of Biocides with Nitrogen Compounds (bacterial inoculum [1]; Time 9 days): −
Growth, Neutralization of Biocides with Nitrogen Compounds (bacterial inoculum [1]; Time 13 days): −
Growth, Neutralization of Biocides with Nitrogen Compounds (bacterial inoculum [1]; Time 20 days): −

CCNCC [diethylamine, Diethylamine]
Growth, nitrogen compound control (bacterial inoculum [1]; Time 0 days): −
Growth, nitrogen compound control (bacterial inoculum [1]; Time 1 days): −
Growth, nitrogen compound control (bacterial inoculum [1]; Time 2 days): −
Growth, nitrogen compound control (bacterial inoculum [1]; Time 6 days): +
Growth, nitrogen compound control (bacterial inoculum [1]; Time 7 days): +
Growth, nitrogen compound control (bacterial inoculum [1]; Time 9 days): +
Growth, nitrogen compound control (bacterial inoculum [1]; Time 13 days): +
Growth, nitrogen compound control (bacterial inoculum [1]; Time 20 days): +
neutralizing 10 ppm of glutaraldehyde (bacterial inoculum [1]): effective
Growth, Neutralization of Biocides with Nitrogen Compounds (bacterial inoculum [1]; Time 0 days): −
Growth, Neutralization of Biocides with Nitrogen Compounds (bacterial inoculum [1]; Time 1 days): −
Growth, Neutralization of Biocides with Nitrogen Compounds (bacterial inoculum [1]; Time 2 days): −
Growth, Neutralization of Biocides with Nitrogen Compounds (bacterial inoculum [1]; Time 6 days): +
Growth, Neutralization of Biocides with Nitrogen Compounds (bacterial inoculum [1]; Time 7 days): +
Growth, Neutralization of Biocides with Nitrogen Compounds (bacterial inoculum [1]; Time 9 days): +
Growth, Neutralization of Biocides with Nitrogen Compounds (bacterial inoculum [1]; Time 13 days): +
Growth, Neutralization of Biocides with Nitrogen Compounds (bacterial inoculum [1]; Time 20 days): +
